Experiments:
human estrogen receptor = test: Partial estrogenic action: transactivation assay, HeLa cells with HEGO and reporter gene rPR-TK-CAT; assay type: cell-based; settings: concentration of 1 μm, negative value means suppression of reporter gene activity below controls
Description: The partial estrogenic action of compounds according to the invention was determined by transactivation assays. HeLa cells were transfixed with human estrogen receptor expression vector (HEGO) and a reporter gene rPR-TK-CAT. This reporter gene contains the “Estrogen Responsive Element” of the rabbit progesterone receptor gene (+698/+729 region) before a TK-CAT gene (Savouret, J. F.; Bailly, A.; Misrahi, M.; Rauch, C.; Redeuilh, G.; Chauchereau, A.; Milgrom, E., Characterization of the Hormone Responsive Element Involved in the Regulation of the Progesterone Receptor Gene. EMBO J. 10, 1875-1883 (1991).
The estrogenic action was determined at a concentration of 1 μm.

MVLN cells = test: Transactivation assay for antiestrogenic action in MVLN cells (reporter gene Vit-TK-LUC); assay type: cell-based; settings: Homo sapiens; MVLN cell line, in the presence of 0.1 nM of estradiol
Description: (§1) The antiestrogenic action of the compounds according to the invention was determined in transactivation assays [Demirpence, E.; Duchesne, M.-J.; Badia, E.; Gagne, D. and Pons, M.: MVLN Cells: a Bioluminescent MCF-7-Derived cell Line to Study the Modulation of Estrogenic Activity; J. Steroid. Molec. Biol. Vol. 46, No. 3, 355-364 (1993) and Berry, M.; Metzger, D.; Chambon, P.: Role of the Two Activating Domains of the Estrogen Receptor in the Cell-type and Promoter-context Dependent Agonistic Activity of the Anti-estrogen 4-Hydroxytamoxifen; The EMBO Journal Vol. 9, 2811-2818 (1990)].
The MVLN cells are transfixed in a stable manner with reporter gene Vit-TK-LUC. The antiestrogenic active strength was determined in the presence of 0.1 nM of estradiol.
(§2) The IC50 values for the new compounds are in the nanomolar range. In the MVLN cell line, the following IC50 values are produced for the compound of Examples 3 and 8 (execution of test according to the above-indicated bibliographic references): […]

HeLa = test: Transactivation assay for antiestrogenic action in HeLa cells; assay type: cell-based; settings: Homo sapiens
Description: as §1, §2

uterus = test: Uterus growth test in infantile rats (antiestrogenic action), p.o.; assay type: in vivo; settings: 0.3 mg p.o. once daily over 3 days with 0.5 μg estradiol benzoate s.c., inhibition compared to EB-control
Description: The uterus growth test in infantile rats, p.o. (test on antiestrogenic action in vivo) also confirms the antiestrogenic action of the compounds according to the invention. The test was performed as described below:
Uterus Growth Test in Infantile Rats (Antiestrogenic Action)
In rodents, the uterus reacts to the application of estrogens with an increase in weight (both proliferation and water retention). This growth can be inhibited in a dose-dependent manner by simultaneous administration of compounds that have an antiestrogenic action.
Infantile female rats weighing 35-45 g at the beginning of the test, 5-6 animals per dose.
Formulation and Administration of the Substances: […]
For the p.o. administration, the substances are dissolved in 1 part ethanol (E) and made up with 9 parts peanut oil (EÖ).
The young rats just dropped by the mothers are delivered for acclimation one day before the beginning of treatment and immediately supplied with food—right in the cage. […] The moist weight (less contents) is determined from the prepared uteri. […]
The average values are determined with standard deviation (X+SD) and the significance of the differences in the control group (EB) in the Dunnett Test (p<0.05) for each group from the relative organ weights (mg/100 g of body weight). […] The relative actions of the test substances are determined by co-variance analysis and regression analysis.

| Compound | melting point [°C] | Activation of the rPR-TK Promoter [% estradiol] (human estrogen receptor) | IC50 (MVLN cells) [nM] | IC50 (HeLa) [nM] | Antiuterotrophic action at 0.3 mg [% inhibition] (uterus) |
| --- | --- | --- | --- | --- | --- |
| CN(CCCCCCCC(F)(F)C(F)(F)F)CCCCC[C@@H]1Cc2cc(O)ccc2[C@@H]2[C@@H]1[C@@H]1CC[C@H](O)[C@@]1(C)C[C@@H]2F | 110 | – | – | – | – |
| CN(CCCCC[C@@H]1Cc2cc(O)ccc2[C@@H]2[C@@H]1[C@@H]1CC[C@H](O)[C@@]1(C)C[C@@H]2F)CCCOCc1ccccc1 [Example 22, 7α-{5-[(3-Benzyloxy-propyl)-methyl-amino]-pentyl}-11β-fluor-estra-1,3,5(10)-triene-3,17β-diol] | – | 53 | – | – | – |
| CN(CCCCCCC(F)(F)C(F)(F)F)CCCCC[C@@H]1Cc2cc(O)ccc2[C@@H]2[C@@H]1[C@@H]1CC[C@H](O)[C@@]1(C)C[C@@H]2F [Example 12, 11β-Fluoro-7α-{5-[methyl-(7,7,8,8,8-pentafluor-octyl)-amino]-pentyl}-estra-1,3,5(10)-triene-3,17β-diol] | – | 34 | – | – | – |
| CN(CC=C(F)C(F)(F)C(F)(F)C(F)(F)F)CCCCC[C@@H]1Cc2cc(O)ccc2[C@@H]2[C@@H]1[C@@H]1CC[C@H](O)[C@@]1(C)C[C@@H]2F [Example 18, 11β-Fluoro-7α-{5-[methyl-(3,4,4,5,5,6,6,6-octafluoro-hex-2-enyl)-amino]-pentyl}-estra-1,3,5(10)-triene-3,17β-diol] | – | 29 | – | – | – |
| CN(CCCCCCCCC(F)(F)C(F)(F)F)CCCCC[C@@H]1Cc2cc(O)ccc2[C@@H]2[C@@H]1[C@@H]1CC[C@H](O)[C@@]1(C)C[C@@H]2F [Example 3, 11β-Fluoro-7α-{5-[methyl-(9,9,10,10,10-pentafluoro-decyl)-amino]-pentyl}-estra-1,3,5(10)-triene-3,17β-diol] | – | −25 | 6.3 | 0.2 | 68 |
| CN(CCCCC[C@@H]1Cc2cc(O)ccc2[C@@H]2[C@@H]1[C@@H]1CC[C@H](O)[C@@]1(C)C[C@@H]2F)CCCC(F)(F)C(F)(F)F [Example 8, 11β-Fluoro-7α-{5-[methyl-(4,4,5,5,5-pentafluoro-pentyl)-amino]-pentyl}-estra-1,3,5(10)-triene-3,17β-diol] | – | 48 | 37 | 8 | 0 |

From patent US6780855B2, “11β-HALOGEN-7α-SUBSTITUTED ESTRATRIENES, PROCESS FOR THE PRODUCTION OF PHARMACEUTICAL PREPARATIONS THAT CONTAIN THESE 11β-HALOGEN-7α-SUBSTITUTED ESTRATRIENES AS WELL AS THEIR USE FOR THE PRODUCTION OF PHARMACEUTICAL AGENTS” (Schering Aktiengesellschaft, priority 1997, dated 2004)
